Active and inactive are the calls of the source. No cut-off for these calls is given here.
Legend:
[1] = target: Rho-associated protein kinase 1 (Homo sapiens, UniProt Q13464); test: Inhibition of ROCK1 by IMAP assay
[2] = target: Proto-oncogene tyrosine-protein kinase Src (Homo sapiens) (UniProt P12931); test: Inhibition of cSRC at 2 uM
[3] = target: Insulin receptor (Homo sapiens) (UniProt P06213); test: Inhibition of IR at 2 uM
[4] = target: Tyrosine-protein kinase CSK (Homo sapiens) (UniProt P41240); test: Inhibition of CSK at 2 uM
[5] = target: Serine/threonine-protein kinase Nek2 (Homo sapiens) (UniProt P51955); test: Inhibition of NEK2 at 2 uM
[6] = target: BDNF/NT-3 growth factors receptor (Homo sapiens) (UniProt Q16620); test: Inhibition of TRKbeta at 2 uM
[7] = target: RAF proto-oncogene serine/threonine-protein kinase (Homo sapiens) (UniProt P04049); test: Inhibition of cRAF at 2 uM
[8] = target: Epidermal growth factor receptor (Homo sapiens) (UniProt P00533); test: Inhibition of EGFR at 2 uM
[9] = target: Serine/threonine-protein kinase PAK 2 (Homo sapiens) (UniProt Q13177); test: Inhibition of PAK2 at 2 uM
Sequence of Serine/threonine-protein kinase PAK 2 (Homo sapiens) (Q13177 whole entry): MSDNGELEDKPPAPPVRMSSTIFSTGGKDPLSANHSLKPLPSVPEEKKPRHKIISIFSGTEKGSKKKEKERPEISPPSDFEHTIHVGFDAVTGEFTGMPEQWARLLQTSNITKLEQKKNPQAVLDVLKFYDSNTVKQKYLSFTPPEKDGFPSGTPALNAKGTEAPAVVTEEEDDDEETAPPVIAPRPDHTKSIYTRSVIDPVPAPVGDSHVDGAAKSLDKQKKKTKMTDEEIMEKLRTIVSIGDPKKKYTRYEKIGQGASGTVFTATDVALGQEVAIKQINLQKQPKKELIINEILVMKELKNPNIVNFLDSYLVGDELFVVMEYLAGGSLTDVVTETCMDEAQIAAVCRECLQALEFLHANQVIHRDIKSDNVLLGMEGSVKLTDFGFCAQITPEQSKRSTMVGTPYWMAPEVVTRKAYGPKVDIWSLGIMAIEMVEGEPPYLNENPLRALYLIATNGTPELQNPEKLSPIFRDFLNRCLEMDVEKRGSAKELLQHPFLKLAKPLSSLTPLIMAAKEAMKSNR

[10] = target: Dual specificity mitogen-activated protein kinase kinase 1 (Homo sapiens) (UniProt Q02750); test: Inhibition of MEK1 at 2 uM
[11] = target: MAP kinase-activated protein kinase 2 (Homo sapiens) (UniProt P49137); test: Inhibition of MAPK2 at 2 uM
[12] = Inhibition of MAPK at 2 uM
[13] = target: Cyclin-dependent kinase 2 (Homo sapiens) (UniProt P24941); test: Inhibition of CDK2 at 2 uM
[14] = target: Glycogen synthase kinase-3 beta (Homo sapiens) (UniProt P49841); test: Inhibition of GSK3-beta at 2 uM
Sequence of Glycogen synthase kinase-3 beta (Homo sapiens) (P49841 whole entry, looked up): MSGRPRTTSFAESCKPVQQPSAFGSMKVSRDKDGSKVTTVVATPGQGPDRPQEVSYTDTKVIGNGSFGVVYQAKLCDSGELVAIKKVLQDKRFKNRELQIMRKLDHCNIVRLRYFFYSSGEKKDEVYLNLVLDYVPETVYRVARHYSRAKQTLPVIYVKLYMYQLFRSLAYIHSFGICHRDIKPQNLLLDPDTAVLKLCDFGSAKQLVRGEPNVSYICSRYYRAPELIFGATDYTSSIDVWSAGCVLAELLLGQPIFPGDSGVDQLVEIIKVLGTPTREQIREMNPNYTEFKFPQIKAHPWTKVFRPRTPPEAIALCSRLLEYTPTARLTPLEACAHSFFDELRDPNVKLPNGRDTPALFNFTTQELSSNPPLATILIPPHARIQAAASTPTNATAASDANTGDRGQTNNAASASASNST

Rattus norvegicus [15] = test: Decrease in mean arterial blood pressure in spontaneous hypertensive rat model at 10 mg/kg, sc; type: functional, organism-based; set-up: dose 10 mg/kg; conditions: Artery
[16] = target: Serine/threonine-protein kinase STK11 (Homo sapiens) (UniProt Q15831); test: Inhibition of LKB1 at 2 uM
Sequence of Serine/threonine-protein kinase STK11 (Homo sapiens) (Q15831 whole entry): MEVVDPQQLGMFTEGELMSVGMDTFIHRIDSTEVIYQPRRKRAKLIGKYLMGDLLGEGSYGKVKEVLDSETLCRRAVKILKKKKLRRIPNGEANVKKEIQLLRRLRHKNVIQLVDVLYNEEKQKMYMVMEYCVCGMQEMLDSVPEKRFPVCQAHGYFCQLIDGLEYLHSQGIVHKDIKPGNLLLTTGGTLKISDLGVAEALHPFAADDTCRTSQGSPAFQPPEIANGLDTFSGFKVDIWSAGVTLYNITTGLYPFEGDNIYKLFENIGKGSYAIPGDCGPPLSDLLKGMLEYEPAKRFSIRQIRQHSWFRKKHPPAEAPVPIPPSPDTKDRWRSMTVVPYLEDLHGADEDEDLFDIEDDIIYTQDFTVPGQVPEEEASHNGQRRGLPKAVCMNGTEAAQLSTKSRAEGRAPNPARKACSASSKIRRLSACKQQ

[17] = target: Platelet-derived growth factor receptor beta (Homo sapiens) (UniProt P09619); test: Inhibition of PDGFRbeta at 2 uM
Rattus norvegicus [18] = test: Decrease in mean arterial blood pressure in spontaneous hypertensive rat model at 3 mg/kg, sc; type: functional, organism-based; set-up: dose 3 mg/kg; conditions: Artery
[19] = target: Ribosomal protein S6 kinase alpha-3 (Homo sapiens) (UniProt P51812); test: Inhibition of Rsk2 at 2 uM
[20] = target: Casein kinase I isoform delta (Homo sapiens) (UniProt P48730); test: Inhibition of CK1delta at 2 uM
[21] = Inhibition of CK2 at 2 uM
[22] = target: Serine/threonine-protein kinase Chk1 (Homo sapiens) (UniProt O14757); test: Inhibition of CHK1 at 2 uM
[23] = target: Tyrosine-protein kinase Lck (Homo sapiens) (UniProt P06239); test: Inhibition of LCK at 2 uM
[24] = target: Aurora kinase A (Homo sapiens) (UniProt O14965); test: Inhibition of AuroraA at 2 uM
Sequence of Aurora kinase A (Homo sapiens) (O14965 whole entry): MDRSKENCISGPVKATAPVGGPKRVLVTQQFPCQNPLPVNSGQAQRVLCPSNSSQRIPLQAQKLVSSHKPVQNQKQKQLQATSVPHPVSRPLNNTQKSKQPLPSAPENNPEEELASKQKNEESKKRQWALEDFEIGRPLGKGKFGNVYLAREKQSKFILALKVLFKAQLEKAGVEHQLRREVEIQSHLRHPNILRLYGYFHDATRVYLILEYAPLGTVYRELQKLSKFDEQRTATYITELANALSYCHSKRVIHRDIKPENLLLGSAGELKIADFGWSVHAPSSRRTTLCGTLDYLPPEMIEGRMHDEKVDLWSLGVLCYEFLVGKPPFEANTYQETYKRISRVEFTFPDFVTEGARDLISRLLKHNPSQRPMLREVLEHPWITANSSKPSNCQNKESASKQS

[25] = target: Calcium/calmodulin-dependent protein kinase type IV (Homo sapiens) (UniProt Q16566); test: Inhibition of CaMK4 at 2 uM
[26] = target: Hepatocyte growth factor receptor (Homo sapiens) (UniProt P08581); test: Inhibition of Met at 2 uM
Sequence of Hepatocyte growth factor receptor (Homo sapiens) (P08581 whole entry): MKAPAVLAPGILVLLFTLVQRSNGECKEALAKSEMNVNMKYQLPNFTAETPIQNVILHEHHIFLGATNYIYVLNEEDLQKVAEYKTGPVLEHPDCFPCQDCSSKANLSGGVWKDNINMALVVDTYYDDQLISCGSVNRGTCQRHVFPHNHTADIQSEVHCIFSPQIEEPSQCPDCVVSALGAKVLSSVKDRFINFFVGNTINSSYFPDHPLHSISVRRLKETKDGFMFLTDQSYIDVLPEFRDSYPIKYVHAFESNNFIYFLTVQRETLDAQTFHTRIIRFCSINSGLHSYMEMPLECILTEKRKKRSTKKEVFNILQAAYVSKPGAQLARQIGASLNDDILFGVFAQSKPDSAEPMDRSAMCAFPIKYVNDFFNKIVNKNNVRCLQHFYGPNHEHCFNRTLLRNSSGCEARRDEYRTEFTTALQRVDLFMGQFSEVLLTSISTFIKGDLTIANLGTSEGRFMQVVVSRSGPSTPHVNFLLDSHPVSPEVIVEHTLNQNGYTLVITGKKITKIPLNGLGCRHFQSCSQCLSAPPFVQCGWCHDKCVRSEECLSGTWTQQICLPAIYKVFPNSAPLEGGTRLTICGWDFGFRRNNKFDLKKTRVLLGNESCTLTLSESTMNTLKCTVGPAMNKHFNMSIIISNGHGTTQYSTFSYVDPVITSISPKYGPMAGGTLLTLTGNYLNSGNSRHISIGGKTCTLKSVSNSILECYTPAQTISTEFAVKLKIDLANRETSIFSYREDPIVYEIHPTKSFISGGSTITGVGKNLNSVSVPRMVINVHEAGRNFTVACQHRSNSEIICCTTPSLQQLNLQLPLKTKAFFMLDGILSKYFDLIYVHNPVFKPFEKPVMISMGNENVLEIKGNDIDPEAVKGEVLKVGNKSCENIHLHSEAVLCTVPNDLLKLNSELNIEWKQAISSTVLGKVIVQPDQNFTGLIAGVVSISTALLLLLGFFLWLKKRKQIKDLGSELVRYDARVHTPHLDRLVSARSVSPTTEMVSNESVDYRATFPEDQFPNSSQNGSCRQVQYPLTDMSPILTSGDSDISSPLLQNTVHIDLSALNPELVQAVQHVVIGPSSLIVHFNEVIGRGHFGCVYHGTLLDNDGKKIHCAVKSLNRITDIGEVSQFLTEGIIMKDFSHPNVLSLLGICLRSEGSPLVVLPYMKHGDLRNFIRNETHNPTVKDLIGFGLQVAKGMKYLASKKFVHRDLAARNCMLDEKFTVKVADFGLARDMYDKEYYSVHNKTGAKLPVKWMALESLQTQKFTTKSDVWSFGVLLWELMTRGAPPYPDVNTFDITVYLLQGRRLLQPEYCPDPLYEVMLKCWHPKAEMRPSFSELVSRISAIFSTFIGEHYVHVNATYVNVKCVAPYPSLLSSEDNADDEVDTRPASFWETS

[27] = target: Tyrosine-protein kinase ZAP-70 (Homo sapiens) (UniProt P43403); test: Inhibition of Zap70 at 2 uM
Rattus norvegicus [28] = test: Decrease in mean arterial blood pressure in spontaneous hypertensive rat model at 30 mg/kg, sc; type: functional, organism-based; set-up: dose 30 mg/kg; conditions: Artery

Sequence of Rho-associated protein kinase 1 (Q13464 whole entry): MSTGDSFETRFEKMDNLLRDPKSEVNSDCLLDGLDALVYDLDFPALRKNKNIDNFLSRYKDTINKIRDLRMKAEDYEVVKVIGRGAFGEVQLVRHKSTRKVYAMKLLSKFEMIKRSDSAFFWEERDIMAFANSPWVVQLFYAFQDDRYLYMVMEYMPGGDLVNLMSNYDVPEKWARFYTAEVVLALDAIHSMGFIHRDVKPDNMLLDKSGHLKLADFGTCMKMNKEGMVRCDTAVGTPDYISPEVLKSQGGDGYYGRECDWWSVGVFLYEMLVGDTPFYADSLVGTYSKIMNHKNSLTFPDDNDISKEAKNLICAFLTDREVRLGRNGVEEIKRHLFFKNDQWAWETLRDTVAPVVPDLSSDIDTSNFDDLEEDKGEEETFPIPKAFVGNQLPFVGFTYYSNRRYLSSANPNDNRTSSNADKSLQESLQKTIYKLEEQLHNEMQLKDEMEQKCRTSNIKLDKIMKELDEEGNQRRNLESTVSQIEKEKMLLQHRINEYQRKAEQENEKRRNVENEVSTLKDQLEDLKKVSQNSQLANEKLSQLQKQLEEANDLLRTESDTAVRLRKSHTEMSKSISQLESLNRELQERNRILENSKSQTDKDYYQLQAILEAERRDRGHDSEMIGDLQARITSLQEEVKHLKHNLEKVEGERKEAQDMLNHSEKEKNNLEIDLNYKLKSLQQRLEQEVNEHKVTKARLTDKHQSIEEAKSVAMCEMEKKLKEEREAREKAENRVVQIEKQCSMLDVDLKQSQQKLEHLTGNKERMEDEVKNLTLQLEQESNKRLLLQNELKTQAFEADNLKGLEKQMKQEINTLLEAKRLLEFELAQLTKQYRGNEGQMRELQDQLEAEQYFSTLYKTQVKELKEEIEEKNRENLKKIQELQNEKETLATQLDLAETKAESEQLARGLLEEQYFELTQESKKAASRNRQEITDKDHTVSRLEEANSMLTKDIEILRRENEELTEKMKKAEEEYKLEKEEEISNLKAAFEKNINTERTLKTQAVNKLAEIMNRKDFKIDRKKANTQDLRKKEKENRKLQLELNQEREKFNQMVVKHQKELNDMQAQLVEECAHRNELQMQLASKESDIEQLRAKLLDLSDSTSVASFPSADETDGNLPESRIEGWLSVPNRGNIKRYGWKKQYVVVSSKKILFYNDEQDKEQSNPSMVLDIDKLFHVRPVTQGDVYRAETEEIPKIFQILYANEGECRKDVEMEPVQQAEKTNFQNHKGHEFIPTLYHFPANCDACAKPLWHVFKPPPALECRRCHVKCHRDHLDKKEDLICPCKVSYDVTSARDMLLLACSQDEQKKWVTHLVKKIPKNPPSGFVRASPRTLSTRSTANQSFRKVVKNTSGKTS
Sequence of Proto-oncogene tyrosine-protein kinase Src (Homo sapiens) (P12931 2-536 limits assumed): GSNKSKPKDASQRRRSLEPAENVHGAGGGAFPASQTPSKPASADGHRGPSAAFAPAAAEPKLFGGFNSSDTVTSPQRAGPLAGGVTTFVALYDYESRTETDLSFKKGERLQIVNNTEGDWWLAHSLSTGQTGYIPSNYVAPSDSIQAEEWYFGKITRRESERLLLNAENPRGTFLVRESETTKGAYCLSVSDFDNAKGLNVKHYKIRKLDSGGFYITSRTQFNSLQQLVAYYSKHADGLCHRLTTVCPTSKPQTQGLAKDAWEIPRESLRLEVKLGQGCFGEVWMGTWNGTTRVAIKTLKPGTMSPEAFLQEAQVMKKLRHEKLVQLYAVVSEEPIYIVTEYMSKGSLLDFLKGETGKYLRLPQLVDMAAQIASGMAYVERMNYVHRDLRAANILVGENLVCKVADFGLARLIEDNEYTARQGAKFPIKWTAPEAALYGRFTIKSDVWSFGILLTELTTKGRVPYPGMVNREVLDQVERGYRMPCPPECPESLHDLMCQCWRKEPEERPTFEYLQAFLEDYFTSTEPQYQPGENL

C[C@@H]1CNCCN1c1nc(Nc2ccncc2)nc(NC2Cc3ccccc3C2)n1
IC50 [1]: 118 nM

c1ccc2c(c1)CCC2Nc1nc(Nc2ccncc2)nc(N2CCNCC2)n1 (stereo not drawn)
IC50 [1]: 185 nM

C[C@H]1CNCCN1c1nc(Nc2ccncc2)nc(NC2Cc3ccccc3C2)n1
IC50 [1]: 87 nM

c1ccc2c(c1)CC(Nc1nc(Nc3ccncc3)nc(N3CCNCC3)n1)C2
inhibition [2]: < 50%
inhibition [3]: < 50%
inhibition [4]: < 50%
inhibition [5]: < 50%
inhibition [6]: < 50%
inhibition [7]: < 50%
inhibition [8]: < 50%
inhibition [9]: < 50%
inhibition [10]: < 50%
inhibition [11]: < 50%
inhibition [12]: < 50%
inhibition [13]: < 50%
inhibition [14]: < 50%
Activity (Rattus norvegicus [15]): Active
IC50 [1]: 6 nM
inhibition [16]: < 50%
inhibition [17]: < 50%
Activity (Rattus norvegicus [18]): Active
inhibition [19]: < 50%
inhibition [20]: < 50%
inhibition [21]: < 50%
inhibition [22]: < 50%
inhibition [23]: < 50%
inhibition [24]: < 50%
inhibition [25]: < 50%
inhibition [26]: < 50%
inhibition [27]: < 50%

CN1CCN(c2nc(Nc3ccncc3)nc(NC3Cc4ccccc4C3)n2)CC1
IC50 [1]: 305 nM

c1ccc2c(c1)CC(Oc1nc(Nc3ccncc3)nc(N3CCNCC3)n1)C2
IC50 [1]: 8 nM

c1ccc2c(c1)CC(Nc1nc(Nc3ccncc3)cc(N3CCNCC3)n1)C2
IC50 [1]: 1200 nM

CNCCN(C)c1nc(Nc2ccncc2)nc(NC2Cc3ccccc3C2)n1
IC50 [1]: 81 nM

c1ccc2c(c1)CCC(Nc1nc(Nc3ccncc3)nc(N3CCNCC3)n1)C2 (stereo not drawn)
IC50 [1]: 23 nM

c1ccc2c(c1)CC(Nc1cc(Nc3ccncc3)nc(N3CCNCC3)n1)C2
IC50 [1]: 2 nM

c1ccc(Nc2nc(NC3Cc4ccccc4C3)nc(N3CCNCC3)n2)nc1
IC50 [1]: 1000 nM

c1ccc(Nc2nc(NC3Cc4ccccc4C3)nc(N3CCNCC3)n2)cc1
IC50 [1]: 7400 nM

c1ccc2c(c1)CC(Nc1nc(Nc3ccncc3)nc(N3CCCNCC3)n1)C2
IC50 [1]: 11 nM

c1cc(Nc2nc(NC3CCCC3)nc(N3CCNCC3)n2)ccn1
IC50 [1]: 890 nM

C[C@H]1CN(c2nc(Nc3ccncc3)nc(NC3Cc4ccccc4C3)n2)CCN1
IC50 [1]: 135 nM

C[C@@H](N)[C@H]1CC[C@H](C(=O)Nc2ccncc2)CC1
Activity (Rattus norvegicus [28]): Active

c1ccc2c(c1)CC(Nc1nc(Nc3ccncc3)nc(N3CCCCC3)n1)C2
IC50 [1]: 8300 nM

C[C@@H]1CN(c2nc(Nc3ccncc3)nc(NC3Cc4ccccc4C3)n2)CCN1
IC50 [1]: 8 nM

c1ccc2c(c1)CC(Nc1cc(N3CCNCC3)nc(Nc3ccncc3)n1)C2
IC50 [1]: 14 nM

c1ccc(CCNc2nc(Nc3ccncc3)nc(N3CCNCC3)n2)cc1
IC50 [1]: 326 nM

c1ccc(CNc2nc(Nc3ccncc3)nc(N3CCNCC3)n2)cc1
IC50 [1]: 400 nM

c1cncc(Nc2nc(NC3Cc4ccccc4C3)nc(N3CCNCC3)n2)c1
IC50 [1]: 8400 nM
